Experimental findings from the OPERA property sets (Mansouri et al. 2018) are described below.

Each structure is given as a SMILES string. Peptide text beside a SMILES is read from it.

The logP is a log measure of how a compound divides between an organic and an aqueous phase. High values mean a more lipophilic compound, low ones a more hydrophilic compound.

Compound `CCC(C)(C)C(=O)O` registered a logP of 1.9.
To `CC(=O)Nc1cccc(OCc2cccc(NC(=N)NC(=N)N)c2)c1` belongs 1.82.
Regarding `COc1cc2c(c(OC)c1OC)-c1ccc(=O)c(OC)cc1C(NC(C)=O)CC2` (stereo not drawn), the logP turned out to be 1.
The result for `C#C[C@]1(O)CC[C@H]2[C@@H]3CCc4cc(O)ccc4[C@H]3CC[C@@]21C` reads 3.67.
The result for `CCOC(=O)C(=Cc1ccccc1)C(C)=O` reads 2.21; that for `Cc1ccc(N)nc1`, 1.02; that for `Cc1[nH]c(=O)n(C(C)(C)C)c(=O)c1Cl`, 1.89.
The result for `Cc1n[nH]c(C(=O)N2CCCCCC2)c1[N+](=O)[O-]` reads 1.15; that for `COc1ccc(C=O)cc1C`, 2.23; that for `O=C(O)Cc1ccc(I)cc1`, 2.64.
For the compound `Nc1ccccc1[N+](=O)[O-]`, the logP came out at 1.85.
In turn, `C(#Cc1ccccc1)c1ccccc1` showed a logP of 4.78.
To `CCCCCCOCc1cccc(NC(=O)OCCN2CCCCC2)c1` belongs 4.97; to `CP(C)c1ccccc1`, 2.57.
In turn, `NNC(=O)c1ccc(I)cc1` came in with a logP of 1.55.
`CC(C)c1ccc(C(=O)O)cc1`: the logP came out at 3.4.
The compound `O=C(Nc1cccc2cccnc12)C(F)(F)F` returned a logP of 3.24.
To `CCCNc1ccccc1` belongs 2.45; to `Cc1cc2ccccc2n1C`, 2.82.
The result for `Cc1ccccc1C#N` reads 2.21; that for `CC(C)(C(=O)O)C(=O)O`, 0.39; that for `O=CC(Cl)(Cl)Cl`, 0.99.
The result for `O=C(O)COc1ccccc1` reads 1.34.
As for `CN(C)c1nc(N(C)C)nc(N(C)C)n1`, the logP was 2.73.
The result for `CC(=O)Nc1ccc(O)c(C(C)C)c1` reads 1.71; that for `Oc1cc(Cl)cc(Cl)c1`, 3.62.
The compound `Nc1ccc(-c2ccc(N)cc2)cc1` gave a logP of 1.34.
The result for `CCOC(=O)C(=Cc1ccccc1F)C(=O)OCC` reads 3.04; that for `COc1cc(NS(=O)(=O)c2ccc(N)cc2)nc(C)n1`, 0.61; that for `O=C(Cc1ccccc1)c1ccccc1`, 3.18.
The result for `c1ccc(N2CCCCC2)cc1` reads 2.98.
In turn, `O=NN(CCCl)C(=O)NC1CC2CCC1C2` (stereo not drawn) returned a logP of 2.98.
The result for `CC(C)Oc1ccccc1O` reads 2.09; that for `O=NN(c1ccccc1)c1ccccc1`, 3.13; that for `O=C1C(F)=C(N2CC2)C(=O)C(N2CC2)=C1N1CC1`, 0.14.
Consider `CC(C)OC(=O)Nc1cccc(Cl)c1`, for which the logP turned out to be 3.51.
The result for `CCCCC(=O)O` reads 1.39.
To `CC(C)(C)C1CCN(N=O)CC1` belongs 2.54; to `CCN(CC)N=O`, 0.48; to `CCOC(=O)C(=Cc1ccc([N+](=O)[O-])cc1)C(=O)OCC`, 3.03.
To `CCN(CC)C(=S)SSC(=S)N(CC)CC` belongs 3.88; to `CCC=O`, 0.59.
With `NNC(=O)c1cccc(Br)c1`, the logP was 1.26.
To `CCOc1cn[nH]c1` belongs 0.8.
Take `CNC(=O)CSP(=S)(OC)OC`: the logP amounted to 0.78.
In the case of `c1ccc(-c2ccncc2)cc1`, the logP came out at 2.59.
The result for `NNC(=O)c1ccnc(F)c1` reads -0.11.
To `O=C(O)Cc1ccccc1Nc1c(Cl)cc(O)cc1Cl` belongs 3.7; to `CNC(=O)Oc1cc(C)ccc1C`, 2.03.
As to `Clc1ccc2ccccc2c1Cl`, the logP is 4.42.
To `O=C(C=Cc1ccccc1)OCC=Cc1ccccc1` belongs 4.45; to `O=C(CN1CCCCC1)Nc1ccccc1`, 2.71; to `CCCC(=NOCC)C1C(=O)CC2(CCCCC2)OC1=O` (stereo not drawn), 3.62.
The result for `CC(=O)c1ccccc1N` reads 1.63; that for `CC1(c2ccncc2)CCC(=O)NC1=O` (stereo not drawn), 0.07; that for `CCNNC(=O)COc1ccccc1`, 1.
Turning to `COc1ccc(OC)c(Cc2cnc3nc(N)nc(N)c3c2C)c1`, the logP came to 2.13.
In the case of `CC(C)(Oc1ccc(Cl)cc1)C(=O)O`, the logP was 2.57.
The result for `NC(=O)Nc1cccc(OCC(=O)O)c1` reads 0.26; that for `Cc1ccccc1C(O)c1ccccc1` (stereo not drawn), 3.06; that for `CC1(C)N=C(N)N=C(N)N1c1ccc(Br)cc1`, 1.09.
To `Cc1cc(=O)[nH]o1` belongs 0.46; to `CCC(=O)OC1(C(=O)CCl)C(C)CC2C3CCC4=CC(=O)C=CC4(C)C3(F)C(=O)CC21C` (stereo not drawn), 3.46; to `OCC1OC(Oc2ccc(Cl)cc2)C(O)C(O)C1O` (stereo not drawn), 0.26.
`OCCCc1ccncc1`: the logP was determined as 0.58.
To `CC(=O)Nc1ccccn1` belongs 0.61; to `CCCCC(CC)COC(=O)n1cnc(CC(NC(=O)C2CCC(=O)N2)C(=O)N2CCCC2C(N)=O)c1` (stereo not drawn), 1.82.
Compound `COc1c(O)cc(Cl)c(Cl)c1Cl` gave a logP of 3.77.
The result for `Cn1c(N)nc2cc(C#N)ccc21` reads 1.11.
As to `Nc1ccc(S(=O)(=O)Nc2ccnn2-c2ccccc2)cc1`, the logP was 1.52.
To `COc1ccc(CN(CCN(C)C)c2ccccn2)cc1` belongs 3.27.
The result for `C=C1C(=O)OC2C1CCC(C)C1C=CC(=O)C12C` (stereo not drawn) reads 1.03.
To `Cc1n[nH]c(C(=O)N(C)C2CCCCC2)c1[N+](=O)[O-]` belongs 1.68; to `O=C(O)C1CCCCC1`, 1.96; to `Oc1cccnc1`, 0.48.
The compound `COCc1ccccc1NC(=O)OCCN1CCCCC1` returned a logP of 2.2.
The result for `Cc1ccccc1C=C[N+](=O)[O-]` reads 2.63.
To `COc1cccc(C)c1` belongs 2.66; to `CCCCc1cccc(NC(=O)N(C)C)c1`, 3.23.
As for `NS(=O)(=O)c1ccc(SCCO)s1`, the logP stood at 0.38.
`CN(C)CC/C=C1\c2ccccc2CSc2ccccc21`: the logP came to 4.49.
The result for `CCCCCCCI` reads 4.7; that for `O=C1NC(=O)c2ccccc21`, 1.15; that for `NC(=O)c1cnccn1`, -0.6.
Compound `OCC(Br)(Br)Br` yielded a logP of 2.1.
The result for `Cc1ccc(C)c2ccccc12` reads 4.37.
To `CN(C)C(=O)OCc1ccc(I)cc1` belongs 3.32; to `C(=Cc1ccccn1)c1ccccn1`, 2.11; to `CCOc1cccc2cccnc12`, 2.25.
To `CC(=O)NC(CCC(=O)O)C(=O)NC(Cc1ccccc1)C(=O)NC(CC(C)C)C(N)=O` (stereo not drawn) (Ac-Glu-Phe-Leu-NH2; configuration not given here) belongs 0.32.
As for `CN(C)CCOC(=O)c1ccc([N+](=O)[O-])cc1`, the logP was determined as 1.7.
To `O=C(c1ccccc1)c1cccnc1` belongs 1.88; to `CON(C)C(=O)Nc1ccc(N)cc1`, -0.16.
The result for `O=Cc1ccco1` reads 0.41; that for `CSc1cccc(N)c1`, 1.45; that for `FC(F)OC(Cl)C(F)(F)F` (stereo not drawn), 2.06.
Compound `C=C1C(C)C2C(Cc3ccccc3)NC(=O)C23OC(=O)C=CC(O)CCCC(C)CC=CC3C1O` (stereo not drawn) returned a logP of 3.37.
For `C=CC`, the logP is 1.77.
`NC(=S)c1cccs1` displayed a logP of 1.34.
To `N#Cc1ccnc2ccccc12` belongs 1.98.
The result for `NS(=O)(=O)c1cc2c(cc1Cl)N=CNS2(=O)=O` reads -0.24.
To `COC(=O)c1ccccc1N=NN(C)C` belongs 2.51.
`ONc1ccccc1`: the logP was determined as 0.79.
The result for `Cc1[nH]cnc1CSCCNC(=N)NCCSCc1nc[nH]c1C` reads 1.34; that for `CC1CN(N=O)CC(C)N1` (stereo not drawn), 0.73; that for `Cc1nnc(NS(=O)(=O)c2ccc(N)cc2)s1`, 0.54.
The result for `O=[N+]([O-])c1ccc(C=Cc2ncc[nH]2)o1` reads 1.32.
The compound `COP(=S)(OC)Oc1ccc([N+](=O)[O-])c(Cl)c1` displayed a logP of 3.45.
To `O=[N+]([O-])C=Cc1cccs1` belongs 1.96; to `OCC1OC(OCc2ccccc2)C(O)C(O)C1O` (stereo not drawn), -0.7; to `CCOC(C)OCC`, 0.84.
To `Cc1c[nH]c(=O)[nH]c1=O` belongs -0.62; to `CCCCCCOC1OC(CO)C(O)C(O)C1O` (stereo not drawn), 0.16; to `CC(=O)N[C@H](C(=O)N[C@H](C(N)=O)C(C)C)C(C)C` (Ac-Val-Val-NH2), -0.32.
To `CN(c1ccccc1)c1ccccc1` belongs 3.9; to `NC(=S)c1ccccc1N`, 0.99; to `CC=CC(C)=O`, 0.52.
With `CC(=O)c1ccc(Cl)cc1`, the logP amounted to 2.32.
The compound `FC(F)(F)C(F)(F)F` came in with a log partition coefficient (logP) of 2.
On to `Cn1c(CO)cnc1[N+](=O)[O-]`, for which the logP was -0.35.
The compound `CCCC(O)C(C(=O)O)c1ccc(-c2ccccc2)cc1` (stereo not drawn) yielded a logP of 3.75.
The result for `C=CC(=O)OCC` reads 1.32; that for `OCCCOc1cccc(CN2CCCCC2)c1`, 2.78.
To `OCCN1CCN(CCCC2c3ccc(F)cc3Sc3ccc(C(F)(F)F)cc32)CC1` (stereo not drawn) belongs 4.47; to `CCC(Cl)(CC)C(=O)NC(N)=O`, 1.4.
In the case of `CC1CCCC1`, the logP stood at 3.37.
In the case of `Fc1ccccc1CCl`, the lipophilicity (logP) was 2.67.
On to `C(=Nc1ccccc1)c1ccccc1`, for which the logP worked out at 2.82.
The result for `COc1ccc(S(N)(=O)=O)cc1C(=O)NCC1CCCN1Cc1ccc(F)cc1` (stereo not drawn) reads 2.46.
With `Clc1ccc(-c2ccc(Cl)cc2Cl)c(Cl)c1`, the logP came out at 6.29.
The result for `CC(=O)Nc1ccc(O)c(C)c1C` reads 0.57; that for `N#C/C=C/c1ccccc1`, 1.96; that for `OCCNCCO`, -1.43.
The result for `CC(=O)N[C@@H](Cc1ccccc1)C(=O)NCC(=O)N[C@@H](CC(C)C)C(N)=O` reads 0.6.
As to `CS(=O)(=O)OCCCCOS(C)(=O)=O`, the logP was -0.52.
Take `CCCCOc1cccc(OC(=O)NC)c1`: the logP was 2.96.
`CN(C)CC/C=C1\c2ccccc2Sc2ccc(Cl)cc21` returned a logP of 5.18.
Compound `CCC(c1ccccc1)c1c(O)c2ccccc2oc1=O` (stereo not drawn) gave a logP of 3.62.
